In patent publication US9273040B2 (Merck Sharp & Dohme Corp., priority 2011, dated 2016):

Key:
Type in all cases: cell-based
[1] = target: T1, human Nav1.7 channels stably expressed in HEK 293 cells (Homo sapiens, UniProt Q15858); assay: PatchXpress 7000 automated patch-clamp, sodium current; details: 22° C., read-out: potency for the Nav 1.7 sodium ion channel (as measured by PatchXpress)
T1 construct: expressed in transfected cells
Summary of the method: (§1)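 IC50 values came from Hill-equation fits of rundown-corrected inhibition. PatchXpress recordings at 22° C held cells 20 mV negative to V0.5 inact and applied 10 Hz trains of 30 ms steps to −20 mV (Nav1.7) or an 8000 ms prepulse 7 mV positive to V0.5 inact. […]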

[2] = target: T2, human Nav1.5 channels stably expressed in HEK 293 cells (Homo sapiens, UniProt Q14524); assay: as above; details: selectivity over Nav1.5
T2 construct: expressed in transfected cells
Summary of the method: as §1

[3] = target: T1, human Nav1.7 channels stably expressed in HEK 293 cells; assay: IonWorks Quattro automated patch-clamp, sodium current, inactivated state block; details: read-out: potency for the Nav 1.7 sodium ion channel (as measured by IonWorks)
[4] = target: T2, human Nav1.5 channels stably expressed in HEK 293 cells; assay: as above; details: selectivity over Nav1.5

T2 sequence (Q14524 whole entry): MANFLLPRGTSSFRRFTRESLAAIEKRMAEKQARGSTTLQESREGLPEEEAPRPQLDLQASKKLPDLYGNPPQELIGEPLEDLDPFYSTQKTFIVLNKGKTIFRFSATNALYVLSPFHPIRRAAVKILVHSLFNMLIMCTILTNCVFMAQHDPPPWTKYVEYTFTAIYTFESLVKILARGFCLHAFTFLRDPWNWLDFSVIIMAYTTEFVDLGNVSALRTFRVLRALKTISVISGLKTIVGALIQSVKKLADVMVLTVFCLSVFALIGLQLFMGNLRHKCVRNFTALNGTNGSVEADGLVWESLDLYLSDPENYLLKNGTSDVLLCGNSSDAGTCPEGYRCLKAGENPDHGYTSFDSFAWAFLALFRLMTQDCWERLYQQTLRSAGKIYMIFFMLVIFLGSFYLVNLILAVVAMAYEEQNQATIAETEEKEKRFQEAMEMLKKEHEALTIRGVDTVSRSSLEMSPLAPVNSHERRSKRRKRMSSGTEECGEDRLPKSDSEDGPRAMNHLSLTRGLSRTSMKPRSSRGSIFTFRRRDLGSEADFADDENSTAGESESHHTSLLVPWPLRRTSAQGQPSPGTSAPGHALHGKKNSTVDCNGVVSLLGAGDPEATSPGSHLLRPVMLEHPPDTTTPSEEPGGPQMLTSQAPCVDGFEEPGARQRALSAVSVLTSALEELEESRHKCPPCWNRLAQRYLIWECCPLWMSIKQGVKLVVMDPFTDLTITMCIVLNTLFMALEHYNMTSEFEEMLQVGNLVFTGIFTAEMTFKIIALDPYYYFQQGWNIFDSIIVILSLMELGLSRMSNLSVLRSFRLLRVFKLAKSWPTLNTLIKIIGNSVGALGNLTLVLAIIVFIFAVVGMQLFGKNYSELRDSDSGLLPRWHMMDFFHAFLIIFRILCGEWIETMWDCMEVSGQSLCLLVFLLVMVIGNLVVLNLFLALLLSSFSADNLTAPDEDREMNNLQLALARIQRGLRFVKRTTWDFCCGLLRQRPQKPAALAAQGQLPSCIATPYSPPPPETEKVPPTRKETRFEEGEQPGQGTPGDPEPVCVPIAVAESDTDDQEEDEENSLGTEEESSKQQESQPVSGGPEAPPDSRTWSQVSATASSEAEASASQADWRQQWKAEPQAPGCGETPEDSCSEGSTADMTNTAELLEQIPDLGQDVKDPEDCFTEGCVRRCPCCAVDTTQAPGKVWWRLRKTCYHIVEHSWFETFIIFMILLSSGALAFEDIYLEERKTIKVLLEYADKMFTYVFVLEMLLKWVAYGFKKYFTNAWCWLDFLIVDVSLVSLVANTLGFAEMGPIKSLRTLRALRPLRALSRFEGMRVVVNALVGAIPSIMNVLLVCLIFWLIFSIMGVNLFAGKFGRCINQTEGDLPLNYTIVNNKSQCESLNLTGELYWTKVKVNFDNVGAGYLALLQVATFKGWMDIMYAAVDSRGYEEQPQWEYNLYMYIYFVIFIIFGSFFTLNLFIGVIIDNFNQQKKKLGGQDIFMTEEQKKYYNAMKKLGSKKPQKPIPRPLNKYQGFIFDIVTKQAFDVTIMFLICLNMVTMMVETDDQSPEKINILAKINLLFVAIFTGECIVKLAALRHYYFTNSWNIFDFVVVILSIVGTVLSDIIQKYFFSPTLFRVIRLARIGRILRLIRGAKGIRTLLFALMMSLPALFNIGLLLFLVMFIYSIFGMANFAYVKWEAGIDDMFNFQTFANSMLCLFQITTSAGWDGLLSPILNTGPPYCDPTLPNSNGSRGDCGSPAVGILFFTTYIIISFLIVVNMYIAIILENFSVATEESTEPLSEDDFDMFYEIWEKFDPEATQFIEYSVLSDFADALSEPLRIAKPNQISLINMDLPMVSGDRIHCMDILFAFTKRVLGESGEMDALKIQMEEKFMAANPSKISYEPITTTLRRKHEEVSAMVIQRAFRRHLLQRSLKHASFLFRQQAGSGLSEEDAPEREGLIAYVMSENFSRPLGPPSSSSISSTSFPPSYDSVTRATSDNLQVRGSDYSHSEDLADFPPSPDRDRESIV
T1 sequence (Q15858 whole entry): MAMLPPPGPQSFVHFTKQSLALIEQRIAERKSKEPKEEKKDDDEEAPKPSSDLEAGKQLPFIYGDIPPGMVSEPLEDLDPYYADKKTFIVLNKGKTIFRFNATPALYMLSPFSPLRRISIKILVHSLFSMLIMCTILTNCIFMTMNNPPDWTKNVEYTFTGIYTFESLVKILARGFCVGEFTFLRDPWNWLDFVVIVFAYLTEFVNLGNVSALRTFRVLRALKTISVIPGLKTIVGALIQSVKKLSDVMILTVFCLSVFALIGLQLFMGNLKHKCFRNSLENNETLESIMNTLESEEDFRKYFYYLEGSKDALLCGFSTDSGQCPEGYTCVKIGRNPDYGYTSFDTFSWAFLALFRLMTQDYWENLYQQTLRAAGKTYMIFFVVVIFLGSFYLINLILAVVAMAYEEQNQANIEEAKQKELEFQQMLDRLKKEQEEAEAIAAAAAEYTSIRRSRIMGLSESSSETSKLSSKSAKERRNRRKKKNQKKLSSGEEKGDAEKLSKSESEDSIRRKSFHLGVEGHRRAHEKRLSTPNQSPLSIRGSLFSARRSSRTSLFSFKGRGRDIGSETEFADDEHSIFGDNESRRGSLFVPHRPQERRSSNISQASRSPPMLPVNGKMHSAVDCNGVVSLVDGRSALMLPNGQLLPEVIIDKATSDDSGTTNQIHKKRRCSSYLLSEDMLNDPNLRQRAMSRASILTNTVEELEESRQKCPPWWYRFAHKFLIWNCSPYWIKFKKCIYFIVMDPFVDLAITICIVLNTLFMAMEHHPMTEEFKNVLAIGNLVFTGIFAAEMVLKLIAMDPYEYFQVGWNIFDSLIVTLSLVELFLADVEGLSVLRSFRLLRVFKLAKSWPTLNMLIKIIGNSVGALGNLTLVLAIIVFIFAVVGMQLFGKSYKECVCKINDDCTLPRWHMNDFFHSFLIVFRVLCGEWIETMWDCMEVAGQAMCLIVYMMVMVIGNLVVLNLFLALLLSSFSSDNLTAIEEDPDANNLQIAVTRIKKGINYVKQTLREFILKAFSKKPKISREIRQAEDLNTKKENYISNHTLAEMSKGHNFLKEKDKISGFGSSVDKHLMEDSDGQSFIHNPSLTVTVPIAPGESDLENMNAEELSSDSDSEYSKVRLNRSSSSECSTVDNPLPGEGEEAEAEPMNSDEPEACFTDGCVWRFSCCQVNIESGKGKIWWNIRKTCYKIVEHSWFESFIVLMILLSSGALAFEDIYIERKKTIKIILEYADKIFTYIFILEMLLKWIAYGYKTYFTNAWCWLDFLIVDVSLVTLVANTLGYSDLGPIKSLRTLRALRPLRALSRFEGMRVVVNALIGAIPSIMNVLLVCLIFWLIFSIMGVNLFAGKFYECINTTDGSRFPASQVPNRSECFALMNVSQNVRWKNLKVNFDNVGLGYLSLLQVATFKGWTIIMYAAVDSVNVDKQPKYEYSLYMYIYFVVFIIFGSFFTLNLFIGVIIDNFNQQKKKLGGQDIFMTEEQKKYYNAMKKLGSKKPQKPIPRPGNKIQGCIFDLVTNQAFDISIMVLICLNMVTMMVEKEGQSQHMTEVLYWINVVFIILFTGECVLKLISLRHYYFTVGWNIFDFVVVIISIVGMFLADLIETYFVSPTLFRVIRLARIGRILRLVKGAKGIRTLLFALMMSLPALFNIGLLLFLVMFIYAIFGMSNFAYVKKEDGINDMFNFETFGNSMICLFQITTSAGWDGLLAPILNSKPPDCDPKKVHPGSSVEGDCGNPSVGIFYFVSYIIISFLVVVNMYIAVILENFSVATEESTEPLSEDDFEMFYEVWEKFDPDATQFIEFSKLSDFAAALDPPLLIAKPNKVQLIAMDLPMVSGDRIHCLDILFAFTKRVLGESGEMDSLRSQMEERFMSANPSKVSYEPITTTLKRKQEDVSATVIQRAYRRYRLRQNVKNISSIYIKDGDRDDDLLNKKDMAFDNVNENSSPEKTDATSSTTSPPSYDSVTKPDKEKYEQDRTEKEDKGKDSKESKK

Compound | IC50 [1] [nM] | ratio of Nav 1.5:Nav 1.7 potency, determined by PatchXpress measurement [2] | IC50 [3] [nM] | ratio of Nav 1.5:Nav 1.7 potency, determined by IonWorks measurement [4]
O=c1oc2cc(S(=O)(=O)Nc3ncns3)ccc2n1Cc1ccccc1C1=CCNCCC1 [Compound 3-5, 2-oxo-3-[2-(2,5,6,7-tetrahydro-1H-azepin-4-yl)benzyl]-N-1,2,4-thiadiazol-5-yl-2,3-dihydro-1,3-benzoxazole-6-sulfonamide] | 111 | > 271 | 248 | > 133
O=c1oc2cc(S(=O)(=O)Nc3ncns3)ccc2n1Cc1ccccc1 [Compound 1-10, 3-benzyl-2-oxo-N-1,2,4-thiadiazol-5-yl-2,3-dihydro-1,3-benzoxazole-6-sulfonamide] | 486 | > 62 | 803 | > 41
O=c1oc2cc(S(=O)(=O)Nc3ncns3)ccc2n1Cc1cccc2c1CN(CC1CC1)CC2 [Compound 6-4, 3-{[2-(cyclopropylmethyl)-1,2,3,4-tetrahydroisoquinolin-8-yl]methyl}-2-oxo-N-1,2,4-thiadiazol-5-yl-2,3-dihydro-1,3-benzoxazole-6-sulfonamide] | 626 | 37 | 464 | 54
O=c1oc2cc(S(=O)(=O)Nc3ncns3)c(F)cc2n1C(c1ccccc1)C1CC1 (stereo not shown) [Compound 13-5, 3-[cyclopropyl(phenyl)methyl]-5-fluoro-2-oxo-N-1,2,4-thiadiazol-5-yl-2,3-dihydro-1,3-benzoxazole-6-sulfonamide] | 145 | > 30 | 110 | > 300
C[C@@H](c1ccccc1)n1c(=O)oc2cc(S(=O)(=O)Nc3ncns3)c(F)cc21 [Compound 13-4, 5-fluoro-2-oxo-3-[(1S)-1-phenylethyl]-N-1,2,4-thiadiazol-5-yl-2,3-dihydro-1,3-benzoxazole-6-sulfonamide] | 167 | 27 | 157 | 78
CN1CCc2cccc(Cn3c(=O)oc4cc(S(=O)(=O)Nc5ncns5)ccc43)c2C1 [Compound 6-1, 3-[(2-Methyl-1,2,3,4-tetrahydroisoquinolin-8-yl)methyl]-2-oxo-N-(1,2,4-thiadiazol-5-yl)-2,3-dihydro-1,3-benzoxazole-6-sulfonamide] | 869 | > 35 | 366 | 88
CC(=O)N1CCc2cccc(Cn3c(=O)oc4cc(S(=O)(=O)Nc5ncns5)ccc43)c2C1 [Compound 9-1, 3-[(2-Acetyl-1,2,3,4-tetrahydroisoquinolin-8-yl)methyl]-2-oxo-N-(1,2,4-thiadiazol-5-yl)-2,3-dihydro-1,3-benzoxazole-6-sulfonamide] | 530 | > 57 | 638 | 35
